Test results reported in publication PMC12187842, “A novel molecule targeting neutrophil-mediated B-1a cell trogocytosis attenuates sepsis-induced acute lung injury” (Frontiers in Immunology, 2025).

Assays:
Assay type in all cases: in vivo, mouse
[1] = test system: CLP-induced sepsis in C57BL/6 mice; experiment: Survival study in CLP mice; conditions: C11 10 mg/kg i.p. once after CLP (Figure 5 legend: 10 μg/kg), single s.c. imipenem 0.5 mg/kg; n = 21/group; CLP vehicle 28.6%; p < 0.05 vs. CLP vehicle, log-rank
Text: (§1) Mice were anesthetized with 2% isoflurane in oxygen, and sepsis was induced via cecal ligation and puncture (CLP) ([26]). A 1-cm midline abdominal incision was made to expose the cecum, which was ligated 1-cm proximal to its end using a 4-0 silk suture. The cecum then was perforated with a single through-and-through puncture using a 22-gauge needle, positioned midway between the ligation and the tip of the cecum. A small amount of fecal material was gently extruded from the perforation sites to confirm the patency of the punctures, and the cecum was subsequently returned to the peritoneal cavity. Following abdominal closure, resuscitation was provided via subcutaneous (s.c.) injection of 500 µL normal saline. Postoperative analgesia was administered with a single dose of 0.1 mg/kg buprenorphine. […]
All statistical analyses were performed using Prism 10 (GraphPad Software, San Diego, CA). Data are expressed as the mean ± standard error of the mean (SEM), and p-values < 0.05 were considered statistically significant. […] For survival analysis, data were assessed using the Kaplan-Meier estimator and compared using the log-rank test.

[2] = test system: CLP-induced sepsis in C57BL/6 mice; experiment: Lung histopathology (H&E) in CLP mice; conditions: C11 10 mg/kg i.p. once after CLP (Figure 5 legend: 10 μg/kg); 20 h; n = 5-7/group; vs. CLP vehicle
Text: as §1, with “buprenorphine. To evaluate the effects of the therapeutic peptide (named Compound 11 or C11) (synthesized by GenScript USA Inc., Piscataway, NJ) on sepsis, C57BL/6 mice were assigned to three experimental groups: the Sham group, the CLP group treated with vehicle, and the CLP group treated with C11 (10 mg/kg). C11 was dissolved in DMSO (10 mg/mL) and diluted with saline to a total volume of 500 µL.” for “buprenorphine.”
Lung tissues were fixed in 10% formalin, embedded in paraffin, sectioned into 5-μm-thick slices, and stained with hematoxylin and eosin (H&E). […] Lung fields at ×400 magnification were scored and averaged for analyses.

[3] = test system: CLP-induced sepsis in C57BL/6 mice; experiment: Lung myeloperoxidase activity in CLP mice; conditions: C11 10 mg/kg i.p. once after CLP (Figure 5 legend: 10 μg/kg); 20 h; n = 5-7/group; vs. CLP vehicle
Text: as §1
Approximately 50 to 100 mg of septic lung tissue, previously snap-frozen in liquid nitrogen and pulverized into a fine powder, was homogenized in potassium phosphate (KPO4) buffer containing 0.5% hexadecyltrimethylammonium bromide (HTAB; MilliporeSigma, Burlington, MA). […] The enzymatic reaction was monitored by measuring light absorbance at 460 nm over a five-minute period. MPO activity was expressed as units per gram of tissue, where one unit was defined as the change in absorbance per minute.

[4] = test system: CLP-induced sepsis in C57BL/6 mice; experiment: Plasma organ injury markers in CLP mice by colorimetric enzymatic assays; conditions: C11 10 mg/kg i.p. once after CLP (Figure 5 legend: 10 μg/kg); 20 h; n = 5-7/group; vs. CLP vehicle
Text: Mice were anesthetized with 2% isoflurane in oxygen, and sepsis was induced via cecal ligation and puncture (CLP) ([26]). A 1-cm midline abdominal incision was made to expose the cecum, which was ligated 1-cm proximal to its end using a 4-0 silk suture. The cecum then was perforated with a single through-and-through puncture using a 22-gauge needle, positioned midway between the ligation and the tip of the cecum. A small amount of fecal material was gently extruded from the perforation sites to confirm the patency of the punctures, and the cecum was subsequently returned to the peritoneal cavity. Following abdominal closure, resuscitation was provided via subcutaneous (s.c.) injection of 500 µL normal saline. Postoperative analgesia was administered with a single dose of 0.1 mg/kg buprenorphine. To evaluate the effects of the therapeutic peptide (named Compound 11 or C11) (synthesized by GenScript USA Inc., Piscataway, NJ) on sepsis, C57BL/6 mice were assigned to three experimental groups: the Sham group, the CLP group treated with vehicle, and the CLP group treated with C11 (10 mg/kg). C11 was dissolved in DMSO (10 mg/mL) and diluted with saline to a total volume of 500 µL. The peptide was administered once, immediately after surgery, via intraperitoneal (i.p.) injection. Mice in the vehicle group received an equivalent volume of DMSO and normal saline via i.p. injection. After 20 h, lungs were harvested, and blood was collected via cardiac puncture. For the survival study, animals received a single subcutaneous (s.c.) injection of 0.5 mg/kg imipenem at the end of the CLP.
Blood was collected by heart puncture. Plasma levels of organ injury markers (ALT: alanine transaminase, AST: aspartate transferase, and LDH: lactate dehydrogenase) were assessed by using colorimetric enzymatic assays (MedTest Dx, Canton, MI) according to the manufacturer’s protocol. Plasma levels of pro-inflammatory cytokines (TNFα: tumor necrosis factor α, and IL-6: interleukin-6) were measured by using mouse-specific ELISA kits (BD Biosciences).

In the case of 126-ELKNRTVSWFS-136 [Compound C11], the survival [1] is reported as 57.1%, the “sepsis-induced lung injury (H&E histology, lung injury score 0 to 1)” value [2] is reported as “significantly mitigated” and the “lung MPO activity” value [3] is reported as “attenuated”. The “blood ALT” value [4] was “markedly reduced”, the “blood AST” value [4] was “markedly reduced” and the “blood LDH” value [4] was “markedly reduced”.
